# Test results as given in patent US9844575B2, “Pharmaceutical composition and functional food comprising natural extracts for preventing or treating diabetic complications or angiodema” (KOREA INSTITUTE OF ORIENTAL MEDICINE, priority 2013, dated 2017).
# Structures can show the parent of a compound that is named as a salt.
# How the values were obtained:
# [1] = tested on: advanced glycation endproducts (AGE); assay: Inhibitory effect against formation of advanced glycation endproducts (BSA + fructose/glucose, 7 days, fluorescence); format: biochemical
# Description: Experiments were performed to examine the inhibitory effects of each of the compositions prepared in Example 1 and Example 2 against the formation of advanced glycation endproducts.
# Bovine serum albumin (BSA), a protein source, was prepared by mixing into a phosphate buffer solution. As a sugar source, a mixed solution between 0.2 M fructose and 0.2 M glucose was used. Each of the compositions prepared in Example 1 and Example 2, and aminoguanidine (positive control) were respectively added into a mixed solution between BSA and a sugar, and cultured for 7 days. After culturing, the content of the resulting advanced glycation endproducts was analyzed. The amount of the advanced glycation endproducts was calculated based on the Equation 1 below using a Microplate reader (Excitation; 350 nm, Emission; 450 nm) (Table 1). Inhibitory effect of AGE (%)={100−(fluorescence intensity of a sample)−(fluorescence intensity of a blank sample)/(fluorescence intensity of a control)−(fluorescence intensity of a blank control)}×100 [Equation 1]
# [2] = tested on: vascular endothelial growth factor (VEGF); assay: Immunohistochemical staining: formation of VEGF in retina of db/db mice; format: in vivo; settings: oral once daily 12 weeks; COPH 25 and 50 mg/kg; MET 350 mg/kg; COPH 50 + MET 350 mg/kg
# Excerpt: VEGF induces neovascularization and increases permeability of blood vessels. Additionally, VEGF also induces the formation of substrate-degradative proteins.
smiles,measurement,setting,value
N=C(N)NN [Aminoguanidine HCl],IC50,"[1]; AGE formation, BSA + 0.2 M fructose/0.2 M glucose, 7 days",76.47 ± 4.81 µg/mL
same,Inhibitory effect (%),[1]; Conc. 55.5 μg/mL,43.92 ± 0.37%
same,Inhibitory effect (%),[1]; Conc. 74.8 μg/mL,50.86 ± 2.17%
same,Inhibitory effect (%),[1]; Conc. 92.5 μg/mL,54.91 ± 0.75%
"CN(C)C(=N)N=C(N)N [MET, metformin]",expression of VEGF within retinal tissue (FIG. 9),[2],significantly inhibited the expression of VEGF
